Twelve compounds from US7655683B2, “Imidazolopyrazole derivatives useful as selective androgen receptor modulators” (Janssen Pharmaceutica NV, priority 2006, dated 2010) can be followed below.

In assay [1] the test system is ventral prostate and levator ani of immature castrated male Sprague Dawley rats. The assay is described as follows: Ventral Prostate and Levator ani Weight in vivo Assay (agonist activity). On the set-up: key to % Prostate Stimulation / % levator ani Stimulation: level 1 agonist active if it produced greater than or equal to 30% stimulation of levator ani or ventral prostate at 30 mg/kg; level 2 agonist active if it produced greater than or equal to 5% but less than 30% stimulation of levator ani or ventral prostate at 30 mg/kg; listed herein as “inactive” as they did not meet the specified criteria defined above. The following applies: once daily for five days, oral, vehicle = 0%, testosterone propionate = 100%, criteria at 30 mg/kg; for change in vivo at 30 mg/kg: Rattus norvegicus, 120 h. Here is the method:
Immature (approximately 50 g) castrated male Sprague Dawley rats (Charles River) were treated once daily for five days with test compound ([…], in 30% cyclodextrin or 0.5% methylcellulose vehicle), or with testosterone propionate (administered subcutaneously by injection at the nape of the neck at 5 mg/kg, in a volume of 0.1 mL in sesame oil), or with vehicle (1 mL of 30% cyclodextrin or 0.5% methylcellulose, given orally). On the sixth day, the rats were euthanized by asphyxiation in carbon dioxide. Ventral prostates and levator ani. muscle were removed and their wet weights determined.
Test compound activity was determined as the percent stimulation of tissue weight, with the vehicle-treated control group set to zero percent and the testosterone alone-treated control group set to 100%.

Assay [2] relates to ventral prostate and seminal vesicle of immature castrated male Sprague Dawley rats. The assay is described as follows: Ventral Prostate and Seminal Vesicle Weight in vivo Assay (antagonist activity, with testosterone propionate). On the set-up: key to Inhibition of prostate (non-weight prostate weight, mg) / Inhibition of seminal vesicle (non-weight seminal vesicle weight, mg): level 1 agonist active if it produced greater than or equal to 30% stimulation of levator ani or ventral prostate at 30 mg/kg; level 2 agonist active if it produced greater than or equal to 5% but less than 30% stimulation of levator ani or ventral prostate at 30 mg/kg; listed herein as “inactive” as they did not meet the specified criteria defined above. The following applies: test compound oral plus testosterone propionate 2 mg/kg s.c., five days, criteria at 30 mg/kg; for inhibition in vivo at 30 mg/kg: Rattus norvegicus, 120 h. Here is the method: Immature (approximately 50 g) castrated male Sprague Dawley rats (Charles River) were treated once daily for five days with test compound ([…], in 30% cyclodextrin or 0.5% methylcellulose vehicle) and with testosterone propionate (given subcutaneously by injection at the nape of the neck at 2 mg/kg, in a volume of 0.1 mL in sesame oil). On the sixth day, the rats were euthanized by asphyxiation in carbon dioxide. Ventral prosatates and seminal vesicles were removed and their wet weights determined. Test compound activity was determined as the percent inhibition of testosterone-enhanced tissue weights, with a vehicle-treated control group set to zero percent and a testosterone alone-treated control group set to 100%.

[3] abbreviates: seminal vesicle wet weight, read-out: Inhibition of seminal vesicle (non-weight seminal vesicle weight, mg).
[4] abbreviates: levator ani wet weight, 30 mg/kg.
[5] abbreviates: ventral prostate wet weight, 30 mg/kg.
[6] abbreviates: levator ani wet weight, read-out: % levator ani Stimulation.
[7] abbreviates: ventral prostate wet weight, read-out: % Prostate Stimulation.
[8] abbreviates: ventral prostate wet weight, read-out: Inhibition of prostate (non-weight prostate weight, mg).

Like-named read-outs stand apart in the source and are kept apart here.

`CC12CC=NN1C(N)=N/C2=N\c1ccc(C#N)c(C(F)(F)F)c1` (stereo not shown) [Compound 6, 4-(6-Amino-3a-methyl-3,3a-dihydro-imidazo[1,5-b]pyrazol-4-ylideneamino)-2-trifluoromethyl-benzonitrile]: in assay [1] (levator ani wet weight), the “% levator ani Stimulation” value is “inactive”. The “% Prostate Stimulation” value in assay [1] (ventral prostate wet weight) was “inactive”. In addition, the inhibition in vivo at 30 mg/kg in assay [2] (setting [3]) lay in the range of 5 to 30%. In assay [2] (ventral prostate wet weight), the “Inhibition of prostate (non-weight prostate weight, mg)” value is “inactive”.
For `C[C@]12CC(C(F)(F)F)=NN1C(N)=NC2=Nc1ccc(C#N)c(C(F)(F)F)c1.O` [Compound 17, 4-(6-Amino-3aR-methyl-2-trifluoromethyl-3,3a-dihydro-imidazo[1,5-b]pyrazol-4-ylideneamino)-2-trifluoromethyl-benzonitrile-Hydrates], the “% levator ani Stimulation” value in assay [1] (setting [4]) was “level 1 (level 1 agonist active if it produced greater than or equal to 30% stimulation of levator ani or ventral prostate at 30 mg/kg)”. In addition, in assay [1] (setting [5]), the “% Prostate Stimulation” value is recorded as “level 2 (level 2 agonist active if it produced greater than or equal to 5% but less than 30% stimulation of levator ani or ventral prostate at 30 mg/kg)”. In addition, in assay [2] (seminal vesicle wet weight), the “Inhibition of seminal vesicle (non-weight seminal vesicle weight, mg)” value was “leve 1”. In assay [2] (ventral prostate wet weight), the “Inhibition of prostate (non-weight prostate weight, mg)” value was “inactive”.
On to `CCc1c(/N=C2\N=C(N)N3N=C(C(F)(F)F)CC23C)ccc(C#N)c1C(F)(F)F` (stereo not shown) [Compound 9, 4-(6-Amino-3a-methyl-2-trifluoromethyl-3,3a-dihydro-imidazo[1,5-b]pyrazol-4-ylideneamino)-3-ethyl-2-trifluoromethyl-benzonitrile], for which the change in vivo at 30 mg/kg in assay [1] (setting [6]) and in assay [1] (setting [7]) was 5 to 30% in each case. In addition, the results for the inhibition in vivo at 30 mg/kg in assay [2] (setting [3]) and in assay [2] (setting [8]) were ≥ 30% and 5 to 30%, respectively.
Consider `C[C@]12CC(C(F)(F)F)=NN1C(NC(=O)C(F)(F)F)=N/C2=N\c1ccc(C#N)c(C(F)(F)F)c1` [Compound 13, N-[4-(4-Cyano-3-trifluoromethyl-phenylimino)-3aR-methyl-2-trifluoromethyl-3a,4-dihydro-3H-imidazo[1,5-b]pyrazol-6-yl]-2,2,2-trifluoro-acetamide], for which the change in vivo at 30 mg/kg in assay [1] (setting [6]) and in assay [1] (setting [7]) was ≥ 30% in each case. In addition, the inhibition in vivo at 30 mg/kg in assay [2] (setting [3]) is 5 to 30%; in assay [2] (setting [8]) it was ≥ 30%.
For the compound `CC12CC(C(F)(F)F)=NN1C(N)=N/C2=N\c1ccc([N+](=O)[O-])c(C(F)(F)F)c1` (stereo not shown) [Compound 5, 3a-Methyl-4-(4-nitro-3-trifluoromethyl-phenylimino)-2-trifluoromethyl-3a,4-dihydro-3H-imidazo[1,5-b]pyrazol-6-ylamine], in assay [1] (levator ani wet weight), the “% levator ani Stimulation” value was “inactive”. The “% Prostate Stimulation” value in assay [1] (ventral prostate wet weight) was “inactive”. Also, in assay [2] (setting [3]), the inhibition in vivo at 30 mg/kg is ≥ 30%. In addition, the “Inhibition of prostate (non-weight prostate weight, mg)” value in assay [2] (ventral prostate wet weight) was “inactive”.
For `C[C@]12CC(C(F)(F)F)=NN1C(N)=NC2=Nc1ccc(C#N)c(C(F)(F)F)c1.O` [Compound 16, 4-(6-Amino-3aR-methyl-2-trifluoromethyl-3,3a-dihydro-imidazo[1,5-b]pyrazol-4-ylideneamino)-2-trifluoromethyl-benzonitrile-Hydrates], the “% levator ani Stimulation” value in assay [1] (setting [4]) is listed as “level 1 (level 1 agonist active if it produced greater than or equal to 30% stimulation of levator ani or ventral prostate at 30 mg/kg)”. Also, the “% Prostate Stimulation” value in assay [1] (setting [5]) is “level 1 (level 1 agonist active if it produced greater than or equal to 30% stimulation of levator ani or ventral prostate at 30 mg/kg)”. Further, the “Inhibition of seminal vesicle (non-weight seminal vesicle weight, mg)” value in assay [2] (seminal vesicle wet weight) was “level 2 (level 2 antagonist active if it produced greater than or equal to 5% but less than 30% inhibition of ventral prostate or seminal vesicle at 30 mg/kg)”. Further, the “Inhibition of prostate (non-weight prostate weight, mg)” value in assay [2] (ventral prostate wet weight) is recorded as “level 2 (level 2 antagonist active if it produced greater than or equal to 5% but less than 30% inhibition of ventral prostate or seminal vesicle at 30 mg/kg)”.
For `CC12CC(C(F)(F)F)=NN1C(N)=N/C2=N\c1ccc(Cl)c(Cl)c1` (stereo not shown) [Compound 4, 4-(3,4-Dichloro-phenylimino)-3a-methyl-2-trifluoromethyl-3a,4-dihydro-3H-imidazo[1,5-b]pyrazol-6-ylamine], the “% levator ani Stimulation” value in assay [1] (levator ani wet weight) was “inactive”. In addition, the “% Prostate Stimulation” value in assay [1] (ventral prostate wet weight) was “inactive”. The inhibition in vivo at 30 mg/kg in assay [2] (setting [3]) and in assay [2] (setting [8]) was 5 to 30% each time.
Regarding `C[C@]12CC(C(F)(F)F)=NN1C(N)=N/C2=N\c1ccc(C#N)c(C(F)(F)F)c1` [Compound 2, 4-(6-Amino-3aR-methyl-2-trifluoromethyl-3,3a-dihydro-imidazo[1,5-b]pyrazol-4-ylideneamino)-2-trifluoromethyl-benzonitrile], the change in vivo at 30 mg/kg in assay [1] (setting [6]) and in assay [1] (setting [7]) was ≥ 30% throughout. In addition, the inhibition in vivo at 30 mg/kg in assay [2] (setting [8]) is 5 to 30%. Moreover, in assay [2] (seminal vesicle wet weight), the “Inhibition of seminal vesicle (non-weight seminal vesicle weight, mg)” value was “inactive”.
Turning to `CCOC(=O)C1=NN2C(N)=N/C(=N\c3ccc(C#N)c(C(F)(F)F)c3)C2(C)C1` (stereo not shown) [Compound 7, 6-Amino-4-(4-cyano-3-trifluoromethyl-phenylimino)-3a-methyl-3a,4-dihydro-3H-imidazo[1,5-b]pyrazole-2-carboxylic acid ethyl ester], the change in vivo at 30 mg/kg in assay [1] (setting [6]) and in assay [1] (setting [7]) was 5 to 30% each time. Besides, the inhibition in vivo at 30 mg/kg in assay [2] (setting [3]) lay within 5 to 30%. Further, in assay [2] (ventral prostate wet weight), the “Inhibition of prostate (non-weight prostate weight, mg)” value is “inactive”.
Regarding `C[C@]12CC(C(F)(F)F)=NN1C(NC(=O)Nc1ccc(I)cc1)=N/C2=N\c1ccc(C#N)c(C(F)(F)F)c1` [Compound 14, 1-[4-(4-Cyano-3-trifluoromethyl-phenylimino)-3aR-methyl-2-trifluoromethyl-3a,4-dihydro-3H-imidazo[1,5-b]pyrazol-6-yl]-3-(4-iodo-phenyl)-urea], the results for the change in vivo at 30 mg/kg in assay [1] (setting [6]) and in assay [1] (setting [7]) were ≥ 30% and 5 to 30%, respectively. Moreover, the inhibition in vivo at 30 mg/kg in assay [2] (setting [8]) fell in the range of 5 to 30%. Further, in assay [2] (seminal vesicle wet weight), the “Inhibition of seminal vesicle (non-weight seminal vesicle weight, mg)” value is “inactive”.
For `C[C@]12CC(C(F)(F)F)=NN1C(N)=NC2=Nc1ccc(C#N)c(C(F)(F)F)c1.O` [Compound 20, 4-(6-Amino-3aR-methyl-2-trifluoromethyl-3,3a-dihydro-imidazo[1,5-b]pyrazol-4-ylideneamino)-2-trifluoromethyl-benzonitrile-Hydrates], the “% levator ani Stimulation” value in assay [1] (setting [4]) was “level 2 (level 2 agonist active if it produced greater than or equal to 5% but less than 30% stimulation of levator ani or ventral prostate at 30 mg/kg)”. The “% Prostate Stimulation” value in assay [1] (setting [5]) is “level 2 (level 2 agonist active if it produced greater than or equal to 5% but less than 30% stimulation of levator ani or ventral prostate at 30 mg/kg)”. For the same compound, the “Inhibition of seminal vesicle (non-weight seminal vesicle weight, mg)” value in assay [2] (seminal vesicle wet weight) was “level 1 (level 1 antagonist active if it produced greater than or equal to 30% inhibition of ventral prostate or seminal vesicle at 30 mg/kg)”. The “Inhibition of prostate (non-weight prostate weight, mg)” value in assay [2] (ventral prostate wet weight) was “level 2 (level 2 antagonist active if it produced greater than or equal to 5% but less than 30% inhibition of ventral prostate or seminal vesicle at 30 mg/kg)”.
In the case of `CC12CC(c3c(F)c(F)c(F)c(F)c3F)=NN1C(N)=N/C2=N\c1ccc(C#N)c(C(F)(F)F)c1` (stereo not shown) [Compound 11, 4-(6-Amino-3a-methyl-2-pentafluorophenyl-3,3a-dihydro-imidazo[1,5-b]pyrazol-4-ylideneamino)-2-trifluoromethyl-benzonitrile], the change in vivo at 30 mg/kg in assay [1] (setting [6]) and in assay [1] (setting [7]) was 5 to 30% throughout.
